Each structure is given as a SMILES string. Where “and” joins values, the source holds several entries; their conditions need not be identical. Equal values may be shown once. Read-outs that look alike come from different tables or passages of the source.

One data set deals with T1, PB1(4) (h) bromodomain (Homo sapiens, UniProt Q86U86).
T1 construct: Bromodomain
As to the kind of experiment: Epigenetic binding assay, Bromodomain. Particulars: 10 μM; read-out: % Inhibition of Control Specific Binding.

Another data set has as its target T2, SMARCA4 (h) bromodomain (Homo sapiens, UniProt P51532).
T2 construct: Bromodomain
As to the kind of experiment: Epigenetic binding assay, Bromodomain. Particulars: read-out: % Inhibition of Control Specific Binding.

In the next data set the test system is H3K27 ac. As to the kind of experiment: Cell-based detection methyl modifications. The conditions noted are these: read-out: % Inhibition of Control Values.
For a further data set, the target named is T3, SMARCA2 (h) bromodomain (Homo sapiens, UniProt P51531).
T3 construct: Bromodomain
T3 sequence (P51531 1378-1506 limits assumed): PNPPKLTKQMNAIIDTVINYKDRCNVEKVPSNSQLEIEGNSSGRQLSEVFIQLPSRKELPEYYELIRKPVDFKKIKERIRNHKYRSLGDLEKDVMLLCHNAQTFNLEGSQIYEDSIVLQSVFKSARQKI
Kind of data set: Epigenetic binding assay, Bromodomain. Particulars: for inhibition at 10 µM: read-out: % Inhibition of Control Specific Binding.

The target in the next data set is T4, Thioredoxin Reductase (Escherichia coli, UniProt P0A9P4).
T4 construct: host or cells: E. coli
T4 sequence (P0A9P4 2-321): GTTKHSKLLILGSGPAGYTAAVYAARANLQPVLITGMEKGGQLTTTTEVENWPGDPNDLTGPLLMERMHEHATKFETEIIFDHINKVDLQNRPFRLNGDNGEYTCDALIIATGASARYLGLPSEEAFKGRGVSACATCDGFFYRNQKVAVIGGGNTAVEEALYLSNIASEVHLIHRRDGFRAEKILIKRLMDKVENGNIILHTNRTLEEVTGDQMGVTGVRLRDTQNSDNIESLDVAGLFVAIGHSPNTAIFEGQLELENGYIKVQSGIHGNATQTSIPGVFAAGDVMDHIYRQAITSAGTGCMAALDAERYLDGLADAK
Kind of data set: Thioredoxin Reductase. The format is biochemical, E. coli. How it is done: (§1) The in vitro pharmacological studies were conducted by Eurofins PanLab (Taiwan) using the parameters shown in Table 13 with respect to appropriate literature references.

Another data set concerns the target T5, 5-Lipoxygenase (Homo sapiens, UniProt P09917).
T5 construct: host or cells: Insect Sf9 cells
T5 sequence (P09917 1-674): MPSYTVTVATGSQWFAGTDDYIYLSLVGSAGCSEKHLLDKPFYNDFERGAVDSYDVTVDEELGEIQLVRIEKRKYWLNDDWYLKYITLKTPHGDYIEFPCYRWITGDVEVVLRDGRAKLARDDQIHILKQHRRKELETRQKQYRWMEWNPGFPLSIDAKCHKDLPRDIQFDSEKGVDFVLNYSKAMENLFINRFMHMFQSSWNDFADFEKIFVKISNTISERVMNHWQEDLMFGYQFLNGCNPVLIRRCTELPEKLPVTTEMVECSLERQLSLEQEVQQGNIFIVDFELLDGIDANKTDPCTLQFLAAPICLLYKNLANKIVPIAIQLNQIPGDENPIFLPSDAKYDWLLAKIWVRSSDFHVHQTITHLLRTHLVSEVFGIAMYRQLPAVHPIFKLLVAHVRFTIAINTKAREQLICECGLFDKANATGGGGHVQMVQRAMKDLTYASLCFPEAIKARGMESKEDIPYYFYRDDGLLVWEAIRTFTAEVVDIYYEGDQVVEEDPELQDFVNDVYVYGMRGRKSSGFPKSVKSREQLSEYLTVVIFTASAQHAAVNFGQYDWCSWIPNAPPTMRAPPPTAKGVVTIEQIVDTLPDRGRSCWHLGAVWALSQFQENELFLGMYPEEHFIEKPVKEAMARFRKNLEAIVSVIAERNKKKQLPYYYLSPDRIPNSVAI
Kind of data set: 5-Lipoxygenase. The format is biochemical. The conditions noted are these: for remaining activity at 10 µM: assay year 2015, read-out: % Control Response.

The test system of another data set is HCT-8. Kind of data set: OncoPanel cell proliferation assay (10-day). The class given is cell-based, human. Particulars: for EC50 / GI50 / IC50: Homo sapiens, HCT-8, Colon; for EC50: read-out: Cell Count EC50; for GI50: read-out: Cell Count GI50; for IC50: read-out: Cell Count IC50.
The target of a further data set is JARID1B (h) (Homo sapiens, UniProt Q9UGL1). As to the kind of experiment: Epigenetic enzyme assay, Demethylases (KDMs). The conditions noted are these: for inhibition at 10 µM: read-out: % Inhibition of Control Values. The format is biochemical.
Chain of JARID1B (h) (Q9UGL1 whole entry): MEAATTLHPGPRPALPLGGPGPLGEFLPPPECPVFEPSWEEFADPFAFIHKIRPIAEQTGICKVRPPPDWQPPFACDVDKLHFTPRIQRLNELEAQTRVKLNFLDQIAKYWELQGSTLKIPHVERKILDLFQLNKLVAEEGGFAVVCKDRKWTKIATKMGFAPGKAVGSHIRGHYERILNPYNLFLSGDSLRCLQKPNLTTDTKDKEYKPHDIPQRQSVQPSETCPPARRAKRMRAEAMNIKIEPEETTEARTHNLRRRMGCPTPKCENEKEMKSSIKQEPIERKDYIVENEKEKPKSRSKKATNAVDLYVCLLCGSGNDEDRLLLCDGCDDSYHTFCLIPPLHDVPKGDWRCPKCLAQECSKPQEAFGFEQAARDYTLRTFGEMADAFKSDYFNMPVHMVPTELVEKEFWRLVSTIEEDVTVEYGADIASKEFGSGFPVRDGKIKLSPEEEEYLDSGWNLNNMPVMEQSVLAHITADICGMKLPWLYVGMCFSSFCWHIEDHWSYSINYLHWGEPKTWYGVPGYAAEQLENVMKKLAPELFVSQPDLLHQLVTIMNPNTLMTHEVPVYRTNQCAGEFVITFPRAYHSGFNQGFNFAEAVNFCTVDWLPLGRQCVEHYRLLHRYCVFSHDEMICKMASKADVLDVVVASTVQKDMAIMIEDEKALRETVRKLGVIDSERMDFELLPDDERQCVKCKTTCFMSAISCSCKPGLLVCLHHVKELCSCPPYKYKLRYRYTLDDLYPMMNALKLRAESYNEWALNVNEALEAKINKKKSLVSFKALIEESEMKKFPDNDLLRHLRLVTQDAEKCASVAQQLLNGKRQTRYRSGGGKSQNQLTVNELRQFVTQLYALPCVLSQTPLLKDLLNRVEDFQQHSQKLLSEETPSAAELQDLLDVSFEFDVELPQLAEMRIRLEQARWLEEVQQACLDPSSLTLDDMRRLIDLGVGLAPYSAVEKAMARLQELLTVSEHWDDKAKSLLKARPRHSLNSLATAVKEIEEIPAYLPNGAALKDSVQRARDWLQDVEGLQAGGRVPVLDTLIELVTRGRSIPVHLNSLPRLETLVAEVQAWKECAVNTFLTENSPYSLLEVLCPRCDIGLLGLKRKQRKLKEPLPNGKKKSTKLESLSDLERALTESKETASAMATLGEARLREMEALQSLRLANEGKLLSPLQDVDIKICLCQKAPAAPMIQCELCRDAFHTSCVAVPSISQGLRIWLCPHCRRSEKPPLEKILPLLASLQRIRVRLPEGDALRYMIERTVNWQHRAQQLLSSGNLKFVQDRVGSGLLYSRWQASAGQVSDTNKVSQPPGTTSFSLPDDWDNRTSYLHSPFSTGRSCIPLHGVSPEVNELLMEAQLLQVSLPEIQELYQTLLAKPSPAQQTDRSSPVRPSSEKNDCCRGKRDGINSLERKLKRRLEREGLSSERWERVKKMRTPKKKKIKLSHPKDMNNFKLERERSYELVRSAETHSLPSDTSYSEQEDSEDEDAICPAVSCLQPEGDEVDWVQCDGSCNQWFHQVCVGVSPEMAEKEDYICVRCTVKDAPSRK
A further data set deals with T6, CBX1 (h) chromodomain (Homo sapiens, UniProt P83916).
T6 construct: Recognition and specificity determinants of the human cbx chromodomains; Eurofins CEREP (France), contract laboratory
T6 sequence (P83916 21-79 limits assumed): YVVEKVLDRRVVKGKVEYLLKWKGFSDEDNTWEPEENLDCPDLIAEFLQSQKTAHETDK
Kind of data set: Epigenetic binding assay, Chromodomain. Particulars: read-out: % Inhibition of Control Specific Binding.

Another data set has as its system H3K36 me2. As to the kind of experiment: Cell-based detection methyl modifications. Particulars: read-out: % Inhibition of Control Values.
The target of data set [1] is Rsk2(h) (substrate histone H3 full length) (Homo sapiens, UniProt P51812). As to the kind of experiment: Epigenetic enzyme assay, Kinases. The class given is biochemical. Particulars: read-out: % Inhibition of Control Values.
Chain of Rsk2(h) (substrate histone H3 full length) (P51812 whole entry): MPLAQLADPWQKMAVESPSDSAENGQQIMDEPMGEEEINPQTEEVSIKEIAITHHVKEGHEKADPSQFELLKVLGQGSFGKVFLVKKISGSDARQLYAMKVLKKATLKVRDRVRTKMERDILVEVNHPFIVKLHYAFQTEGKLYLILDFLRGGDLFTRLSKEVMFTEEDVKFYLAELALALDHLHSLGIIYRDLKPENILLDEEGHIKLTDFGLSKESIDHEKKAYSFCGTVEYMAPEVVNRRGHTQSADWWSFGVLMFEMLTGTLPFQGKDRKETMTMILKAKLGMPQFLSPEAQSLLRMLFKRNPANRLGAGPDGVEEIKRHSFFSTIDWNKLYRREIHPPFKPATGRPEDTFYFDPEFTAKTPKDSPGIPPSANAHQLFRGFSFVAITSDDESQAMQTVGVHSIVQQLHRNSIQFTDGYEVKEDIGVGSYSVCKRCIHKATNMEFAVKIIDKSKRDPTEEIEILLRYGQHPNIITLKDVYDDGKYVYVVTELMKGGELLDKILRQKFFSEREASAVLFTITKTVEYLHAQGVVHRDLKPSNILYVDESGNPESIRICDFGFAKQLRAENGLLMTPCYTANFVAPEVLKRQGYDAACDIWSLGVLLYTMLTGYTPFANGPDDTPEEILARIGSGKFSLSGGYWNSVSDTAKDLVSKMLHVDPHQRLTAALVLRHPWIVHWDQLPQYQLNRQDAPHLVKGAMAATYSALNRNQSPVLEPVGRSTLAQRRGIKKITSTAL
The target in data set [2] is T7, Protein Tyrosine Phosphatase, PTPN1 (PTP1B) (Homo sapiens, UniProt P18031).
T7 construct: host or cells: E. coli
T7 sequence (P18031 1-435): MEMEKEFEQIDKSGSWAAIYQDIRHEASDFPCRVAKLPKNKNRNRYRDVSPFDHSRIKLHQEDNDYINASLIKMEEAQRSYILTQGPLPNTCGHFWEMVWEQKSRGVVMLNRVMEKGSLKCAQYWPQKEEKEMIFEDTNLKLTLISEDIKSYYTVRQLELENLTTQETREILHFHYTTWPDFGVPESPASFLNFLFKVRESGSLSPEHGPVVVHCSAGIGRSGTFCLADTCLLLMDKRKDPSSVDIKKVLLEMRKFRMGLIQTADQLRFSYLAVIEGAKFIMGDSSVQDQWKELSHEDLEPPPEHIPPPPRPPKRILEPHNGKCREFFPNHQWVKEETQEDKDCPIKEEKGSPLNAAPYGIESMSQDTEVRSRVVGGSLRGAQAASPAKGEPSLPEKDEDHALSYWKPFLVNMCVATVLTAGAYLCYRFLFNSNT
As to the kind of experiment: Protein Tyrosine Phosphatase, PTPN1 (PTP1B). The class given is biochemical. The conditions noted are these: assay year 2015, read-out: % Control Response. Here is the method: as §1

A further data set has as its target T8, ASH1L (h) bromodomain (Homo sapiens, UniProt Q9NR48).
T8 construct: ASH1L (h) bromodomain
As to the kind of experiment: Epigenetic binding assay, Bromodomain. The conditions noted are these: for inhibition at 10 µM: read-out: % Inhibition of Control Specific Binding.

For a further data set, the target named is T9, CYP2B6 (Homo sapiens, UniProt P20813).
T9 sequence (P20813 1-491): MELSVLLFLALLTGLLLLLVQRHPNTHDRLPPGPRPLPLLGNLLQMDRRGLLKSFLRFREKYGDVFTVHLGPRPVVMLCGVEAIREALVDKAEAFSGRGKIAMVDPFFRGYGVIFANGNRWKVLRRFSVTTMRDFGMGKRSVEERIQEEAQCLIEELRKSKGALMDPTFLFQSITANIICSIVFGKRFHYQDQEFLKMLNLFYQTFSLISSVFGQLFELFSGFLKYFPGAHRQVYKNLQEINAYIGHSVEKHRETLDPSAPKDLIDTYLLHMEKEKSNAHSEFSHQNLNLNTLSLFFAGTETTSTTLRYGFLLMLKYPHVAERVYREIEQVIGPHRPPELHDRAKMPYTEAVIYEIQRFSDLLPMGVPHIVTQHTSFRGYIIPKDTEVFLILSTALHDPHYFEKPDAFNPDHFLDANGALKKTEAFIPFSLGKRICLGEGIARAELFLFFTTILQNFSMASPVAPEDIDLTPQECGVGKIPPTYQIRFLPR
Kind of data set: Cytochrome P450 Inhibition (CYP panel). Particulars: human, probe bupropion.

The mark [3] stands for this setting: assay year 2014, read-out: % Control Response.
[4] abbreviates: assay year 2015, read-out: % Control Response.

T2 sequence (P51532 1453-1564 limits assumed): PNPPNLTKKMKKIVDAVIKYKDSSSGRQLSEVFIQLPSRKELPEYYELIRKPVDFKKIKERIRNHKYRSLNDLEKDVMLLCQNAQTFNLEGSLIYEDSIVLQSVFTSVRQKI
T1 sequence (Q86U86 518-625 limits assumed): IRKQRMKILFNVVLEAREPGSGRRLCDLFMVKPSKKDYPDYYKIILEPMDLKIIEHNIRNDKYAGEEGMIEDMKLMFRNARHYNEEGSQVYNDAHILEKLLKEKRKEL

For orientation: inhibition means the change of the read-out against control, counted positive when it falls. By IC50 is commonly meant the concentration needed to halve the response being measured. In general, EC50 refers to the concentration at which the effect is half-maximal. What is called GI50 is the concentration giving 50% growth inhibition. With `CC(C)=CCC[C@H](CO)[C@@H]1CC[C@@H](C)c2c1cc(C)c(O)c2O` [Compound 1, 7,8,18-trihydroxyserrulat-14-ene], the inhibition at 10 µM at PB1(4) (h) bromodomain was 41%; at SMARCA4 (h) bromodomain, 53%; in the data set with H3K27 ac, -16%; at SMARCA2 (h) bromodomain, 83%; at JARID1B (h) (10 μM), 70%; at CBX1 (h) chromodomain, 15%. In addition, the inhibition at 10 µM in the data set on H3K36 me2 was found to be 10%; in data set [1], 5%; at ASH1L (h) bromodomain (10 μM), 95%; on CYP2B6 (liver microsomes), 55%. Further, the “% Inhibition of Control Specific Binding” value at SMARCA2 (h) bromodomain (10 μM) and at ASH1L (h) bromodomain (10 μM) was “significant inhibitory activity” each time. The “% Control Response” value on Thioredoxin Reductase (10 μM, assay year 2014) is “inhibited the activity”. Moreover, the remaining activity at 10 µM at Thioredoxin Reductase (setting [3]) turned out to be 71%; on Thioredoxin Reductase (setting [4]), 35%; on 5-Lipoxygenase, 79%; in [2], 20%. The IC50 was 2.3 µM and 2.31 µM on 5-Lipoxygenase (concentration-response 10 to 0.01 μM); 1.23 µM in the data set on HCT-8; 3.6 µM at JARID1B (h) (Table 11, inhibition/concentration-response curve); 4.2 µM on ASH1L (h) bromodomain (Table 9, inhibition/concentration-response curve, read-out: IC50). Further, the “Relative cell count (%) Mean” value in the data set on HCT-8 (HCT-8, 3.00E+00 microM) was 1.9%; in the data set with HCT-8 (HCT-8, 3.00E+01 microM), 0.0%; with HCT-8 (HCT-8, 3.01E−01 microM), 94.9%; with HCT-8 (HCT-8, 3.01E−02 microM), 91.8%; in the data set on HCT-8 (HCT-8, 3.02E−03 microM) it was 104.1%; with HCT-8 (HCT-8, 9.49E+00 microM), 0.0%. For the same compound, the “Relative cell count (%) Mean” value stood at 72.6% with HCT-8 (HCT-8, 9.51E−01 microM); 100.8% with HCT-8 (HCT-8, 9.52E−02 microM); 91.0% with HCT-8 (HCT-8, 9.53E−03 microM); 102.6% with HCT-8 (HCT-8, 9.55E−04 microM). Further, in the data set with HCT-8, the EC50 turned out to be 1.23 µM. Moreover, the GI50 in the data set with HCT-8 was 1.23 µM. Also, at JARID1B (h) (10 μM), the “% Inhibition of Control Values” is reported as “significant inhibitory activity”. Besides, the “inhibition of binding, 1st” value is reported as 100.6 on ASH1L (h) bromodomain (3.0E−05M); 17.0 at ASH1L (h) bromodomain (3.0E−06M); −0.2 at ASH1L (h) bromodomain (3.0E−07M); −12.3 on ASH1L (h) bromodomain (3.0E−08M); −2.6 on ASH1L (h) bromodomain (3.0E−09M). For the same compound, the “inhibition of binding, 2nd” value on ASH1L (h) bromodomain (3.0E−05M) is listed as 99.6; on ASH1L (h) bromodomain (3.0E−06M), 28.0; on ASH1L (h) bromodomain (3.0E−07M) it was −2.9; on ASH1L (h) bromodomain (3.0E−08M), 1.8; on ASH1L (h) bromodomain (3.0E−09M), −8.2. For the same compound, the “inhibition of binding, Mean” value is recorded as 100.1 on ASH1L (h) bromodomain (3.0E−05M); 22.5 on ASH1L (h) bromodomain (3.0E−06M); −1.6 at ASH1L (h) bromodomain (3.0E−07M); −5.2 at ASH1L (h) bromodomain (3.0E−08M); −5.4 at ASH1L (h) bromodomain (3.0E−09M). Further, the results for the inhibition at 1 µM against CYP2B6 (human liver microsomes) and against CYP2B6 (liver microsomes) were 13 to 16% and 13%, respectively.
For `CC(C)=CCC[C@H](C)[C@@H]1CC[C@@H](C)c2c1cc(C)c(O)c2O` [Compound 4, 7,8-dihydroxyserrulat-14-ene], in the data set with HCT-8, the EC50 came to 12.9 µM, the GI50 worked out at 12.9 µM and the IC50 was 12.9 µM. The inhibition at 1 µM against CYP2B6 (human liver microsomes) lay within 13 to 16%. In addition, at CYP2B6 (liver microsomes), the inhibition at 1 µM stood at 16% and the inhibition at 10 µM was 49%.
For `CC(C)=CCC[C@@H]1COc2c(C)cc(O)c3c2[C@H]1CC[C@H]3C` [Compound 3, 5,18-epoxy-8-hydroxyserrulat-14-ene], the inhibition at 10 µM is 16% at PB1(4) (h) bromodomain; 13% at SMARCA4 (h) bromodomain; -11% in the data set with H3K27 ac; 18% on SMARCA2 (h) bromodomain; -2% at JARID1B (h) (10 μM); -1% on CBX1 (h) chromodomain. In addition, the inhibition at 10 µM in the data set on H3K36 me2 is -8%; in data set [1], -4%; on ASH1L (h) bromodomain (10 μM) it was 42%. For the same compound, the remaining activity at 10 µM at Thioredoxin Reductase (setting [4]) is 9%; at 5-Lipoxygenase it was 67%; in data set [2], -3%.
In the case of `CC(C)=CCC[C@@H]1C(O)Oc2c(C)cc(O)c3c2[C@H]1CC[C@H]3C` (stereo partly shown) [Compound 2, 5,18-epoxyserrulat-14-en-8,18-diol], the inhibition at 10 µM on PB1(4) (h) bromodomain was -3%; on SMARCA4 (h) bromodomain it was 16%; with H3K27 ac it was -12%; at SMARCA2 (h) bromodomain, 21%; at JARID1B (h) (10 μM), 6%; on CBX1 (h) chromodomain, 0%. Also, the inhibition at 10 µM with H3K36 me2 is 7%; in [1], 7%; at ASH1L (h) bromodomain (10 μM), 59%; at CYP2B6 (liver microsomes), 38%. Further, the remaining activity at 10 µM was found to be 6% at Thioredoxin Reductase (setting [3]), 12% at Thioredoxin Reductase (setting [4]), 53% on 5-Lipoxygenase and 3% in [2]. Besides, the EC50 in the data set on HCT-8 is 6.27 µM. Besides, the GI50 in the data set on HCT-8 worked out at 6.24 µM. Besides, the IC50 in the data set on HCT-8 was found to be 6.27 µM. In addition, the results for the inhibition at 1 µM against CYP2B6 (human liver microsomes) and against CYP2B6 (liver microsomes) were 13 to 16% and 15%, respectively.

The record behind these values is patent US11331299B2, “Medicinal use of serrulatane diterpenes” (The University of Sydney, priority 2016, dated 2022).
